Laboratory results reported in patent US20230181482A1, “LIPIDS FOR DELIVERY OF NUCLEIC ACID SEGMENTS” (AstraZeneca AB, priority 2021, published 2023).

Experiments:
[1] = mRNA encapsulation efficiency of LNP formulations (Quant-it Ribogreen assay with Triton-X100); assay type: physicochemical
Experimental: (§1) A solution of eGFP mRNA (purchased from TriLink Biotechnologies) in citrate buffer was prepared by mixing mRNA dissolved in MilliQ-water, 100 mM citrate buffer (pH 3) and MilliQ-water to give a solution of 50 mM citrate. Lipid solution in ethanol (99.5%) was prepared with four different lipid components: ionizable lipid (see Table 1); cholesterol (Sigma-Aldrich); DSPC (distearoyl phosphatidyl choline, Avanti Polar Lipids Inc); and a polymer-conjugated lipid (see Table 1). The ratio of lipids in all experiments was ionizable lipid/cholesterol/DSPC/polymer-conjugated lipid (50/38.5/10/1.5 mol %). The total concentration of lipids in all experiments was 12.5 mM.
(§2) The mRNA and lipid solutions were mixed in a NanoAssemblr (Precision Nanosystems, Vancouver, BC, Canada) microfluidic mixing system at a mixing ratio of Aq:EtOH=3:1 and a constant flow rate of 12 mL/min. The mRNA in citrate buffer solution was prepared such that, at the time of mixing the ratio between the nitrogen atoms on the ionizable lipid and phosphorus atoms (N/P ratio) on the mRNA chain was either 3:1 or 6:1 (see Table 1).
The final mRNA concentration and encapsulation efficiency percentage (% EE) was measured by Quant-it Ribogreen Assay Kit (ThermoFischer Scientific Inc.) using Triton-X100 to disrupt the LNPs. The mRNA encapsulation efficiency was determined according to the following equation: […]

[2] = LNP particle size by dynamic light scattering (Zetasizer Nano ZS); assay type: physicochemical
Experimental: as §1, §2
The first 0.2-0.35 mL and the last 0.05-0.1 mL of the LNP suspension prepared were discarded while the rest of the volume was collected as the sample fraction. The size of the mRNA lipid nanoparticles was determined by dynamic light scattering measurements using a Zetasizer Nano ZS from Malvern Instruments Ltd, giving directly the z-average particle diameter. The number-weighted particle size distributions and averages were calculated using a particle refractive index of 1.45.

[3] = tested on: Female BALB/c mice; experiment: eGFP expression in the liver at 24 hours after intravenous administration of LNP formulations to mouse (ELISA); assay type: in vivo; details: Table 3, 0.3 mg/kg, LNP N/P 3:1, DMPE-PEG2000
Text: Female BALB/c mice were purchased (SPF (Beijing) Laboratory Animal Technology Co. Ltd.) and on arrival were caged in groups of 4 on corncob bedding, with normal diet and were provided tap drinking water ad libitum that was purified and autoclaved before being offered to the animal. The environment was maintained at a target temperature of […] and relative humidity of 40-80%, with a 12-hour light/dark cycle. Animals were acclimatised to the housing conditions for at least 7 days prior to any experimental procedures and were approximately 6-8 weeks of age at the start of dosing
Animals were assigned to respective groups such that the mean body weights for each treatment groups will be equal. N=4 for each treatment group.
Formulations 1, 3, 4, 5, and 6 from Example 58 were each dosed intravenously: Each mouse was removed from its cage and restrained, and then dosed with a slow IV bolus of a formulation in the lateral tail vein at a dose […] of 0.3 mg/kg.
All animals were sacrificed 24 hours after dosing and flowing blood sampling the liver for the animals dosed by the IV route and the liver and muscle at the dose site for the IM dosed animals were harvested for eGFP analysis by ELISA.
Additional LNP formulations were prepared according to the procedures described in Example 46. These formulations were tested using the same protocol as described herein. The results of eGFP expression in the liver at 24 hours after intravenous administration of the formulations were summarized in Tables 3, 4, 5 and 6 below.

[4] = Table 1, LNP with eGFP mRNA, N/P ratio 3:1, DMPE-PEG2000
[5] = Table 1, number-average particle diameter, N/P ratio 3:1, DMPE-PEG2000
[6] = Table 1, z-average particle diameter, N/P ratio 3:1, DMPE-PEG2000
[7] = Table 3, N/P ratio 3:1, DMPE-PEG2000
[8] = Table 1, LNP with eGFP mRNA, N/P ratio 6:1, DMG-PEG2000
[9] = Table 1, number-average particle diameter, N/P ratio 6:1, DMG-PEG2000
[10] = Table 1, z-average particle diameter, N/P ratio 6:1, DMG-PEG2000

Compound | % EE [1, 4] [%] | <d>N (nm) [2, 5] [nm] | <d>Z (nm) [2, 6] [nm] | % EE [1, 7] [%] | <d>N (nm) [2, 7] [nm] | <d>Z (nm) [2, 7] [nm] | Liver eGFP protein (ng/g tissue) [3] [ng/g tissue] | other results
CCCCCC(CCCCC)CCOC(=O)CCCCCCCC(CCCCCCCC(=O)OCCC(CCCCC)CCCCC)NC1CCOCC1 [Compound 2, bis(3-pentyloctyl) 9-[(oxan-4-yl)amino]heptadecanedioate] | 96 | 58 | 73 |  |  |  |  | 
CCCCCC(CCCCC)CCOC(=O)CCCCCCCC(CCCCCCCC(=O)OCCC(CCCCC)CCCCC)NCC1CCOC1 (centres unmarked) [Compound 3, bis(3-pentyloctyl) 9-(((tetrahydrofuran-3-yl)methyl)amino)heptadecanedioate] | 99 | 58 | 79 |  |  |  |  | 
CCCCCC(CCCCC)CCOC(=O)CCCCCCCC(CCCCCCCC(=O)OCCC(CCCCC)CCCCC)NCC1CCOCC1 [Compound 4, bis(3-pentyloctyl) 9-(((tetrahydro-2H-pyran-4-yl)methyl)amino)heptadecanedioate] | 96 | 62 | 81 |  |  |  |  | 
CCCCCC(CCCCC)CCOC(=O)CCCCCCCC(CCCCCCCC(=O)OCCC(CCCCC)CCCCC)NCC1COC1 [Compound 5, bis(3-pentyloctyl) 9-((oxetan-3-ylmethyl)amino)heptadecanedioate] | 99 | 54 | 70 |  |  |  |  | 
CCCCCC(CCCCC)CCOC(=O)CCCCCCCC(CCCCCCCC(=O)OCCC(CCCCC)CCCCC)NCC1CCCCO1 (centres unmarked) [Compound 6, bis(3-pentyloctyl) 9-(((tetrahydro-2H-pyran-2-yl)methyl)amino)heptadecanedioate] |  |  |  | 87 | 59 | 77 | 3621.3 | 
CCCCCC(CCCCC)CCOC(=O)CCCCCCCC(CCCCCCCC(=O)OCCC(CCCCC)CCCCC)NCCC1CCOCC1 [Compound 7, bis(3-pentyloctyl) 9-((2-(tetrahydro-2H-pyran-4-yl)ethyl)amino)heptadecanedioate] |  |  |  | 94 | 54 | 77 | 6526.4 | 
CCCCCC(CCCCC)CCOC(=O)CCCCCCCC(CCCCCCCC(=O)OCCC(CCCCC)CCCCC)NCC1CCCO1 (centres unmarked) [Compound 8, bis(3-pentyloctyl) 9-(((tetrahydrofuran-2-yl)methyl)amino)heptadecanedioate] |  |  |  | 95 | 61 | 76 | 6124.2 | 
CCCCCC(CCCCC)CCOC(=O)CCCCCCCC(CCCCCCCC(=O)OCCC(CCCCC)CCCCC)NCC1COCCO1 (centres unmarked) [Compound 9, bis(3-pentyloctyl) 9-(((1,4-dioxan-2-yl)methyl)amino)heptadecanedioate] |  |  |  | 93 | 61 | 81 | 3160.9 | 
CCCCCC(CCCCC)CCOC(=O)CCCCCC(CCCCCC(=O)OCCC(CCCCC)CCCCC)NC1CC2(COC2)C1 [Compound 13, bis(3-pentyloctyl) 7-((2-oxaspiro[3.3]heptan-6-yl)amino)tridecanedioate] |  |  |  | 93 | 49 | 66 | 8798.8 | 
CCCCCCCCCOC(=O)CCCCCCCN(CCO)CCCCCCCC(=O)OC(CCCCCCCC)CCCCCCCC [MOD5, heptadecan-9-yl 8-((2-hydroxyethyl)(8-(nonyloxy)-8-oxooctyl)amino)octanoate, reference compound] |  |  |  |  |  |  |  | % EE [1, 8]: 98%; <d>N (nm) [2, 9]: 47 nm; <d>Z (nm) [2, 10]: 66 nm
CCCCCCCCCCCOC(=O)CCCCCN(CCO)CCCCCCCC(=O)OC(CCCCCCCC)CCCCCCCC [MOD8, heptadecan-9-yl 8-((2-hydroxyethyl)(6-oxo-6-(undecyloxy)hexyl)amino)octanoate, reference compound] |  |  |  |  |  |  |  | % EE [1, 8]: 98%; <d>N (nm) [2, 9]: 49 nm; <d>Z (nm) [2, 10]: 73 nm
